Laboratory results as given in patent publication US8012939B2 (Tibotec Pharmaceuticals Ltd. Co, priority 2005, dated 2011).

Legend:
[1] = test system: HCV replicons (HCV type 1b, Huh-7 luc/neo cells); test: Replicon assay (Huh-Luc cells, luciferase read-out); type: cell-based; conditions: Hepatitis C virus, Huh-7, 72 h
Excerpt: The compounds of formula (I) were examined for activity in the inhibition of HCV RNA replication in a cellular assay. […] The cellular assay was based on a bicistronic expression construct, as described by Lohmann et al. (1999) Science vol. 285 pp. 110-113 with modifications described by Krieger et al. (2001) Journal of Virology 75: 4614-4624, in a multi-target screening strategy. In essence, the method was as follows.
The assay utilized the stably transfected cell line Huh-7 luc/neo (hereafter referred to as Huh-Luc). This cell line harbors an RNA encoding a bicistronic expression construct comprising the wild type NS3-NS5B regions of HCV type 1b translated from an Internal Ribosome Entry Site (IRES) from encephalomyocarditis virus (EMCV), preceded by a reporter portion (FfL-luciferase), and a selectable marker portion (neo^R, neomycine phosphotransferase). The construct is bordered by 5′ and 3′ NTRs (non-translated regions) from HCV type 1b. Continued culture of the replicon cells in the presence of G418 (neo^R) is dependent on the replication of the HCV RNA. The stably transfected replicon cells that express HCV RNA, which replicates autonomously and to high levels, encoding inter alia luciferase, are used for screening the antiviral compounds.
The replicon cells were plated in 384 well plates in the presence of the test and control compounds which were added in various concentrations. Following an incubation of three days, HCV replication was measured by assaying luciferase activity (using standard luciferase assay substrates and reagents and a Perkin Elmer ViewLux™ ultraHTS microplate imager). Replicon cells in the control cultures have high luciferase expression in the absence of any inhibitor. The inhibitory activity of the compound on luciferase activity was monitored on the Huh-Luc cells, enabling a doseresponse curve for each test compound.

[2] = target: T1, HCV NS3/4A protease complexes (full-length hepatitis C NS3 protease enzyme with NS4A cofactor) (Hepatitis C virus genotype 1a, UniProt P27958); test: Inhibition assay (enzymatic assay, depsipeptide substrate hydrolysis); type: biochemical; conditions: enzyme 1 nM, 25 μM NS4A cofactor, 0.5 μM substrate, 30° C., pH 7.5, model for competitive inhibition
T1 construct: full-length hepatitis C NS3 protease enzyme
T1 sequence (P27958 1027-1657, one chain of several): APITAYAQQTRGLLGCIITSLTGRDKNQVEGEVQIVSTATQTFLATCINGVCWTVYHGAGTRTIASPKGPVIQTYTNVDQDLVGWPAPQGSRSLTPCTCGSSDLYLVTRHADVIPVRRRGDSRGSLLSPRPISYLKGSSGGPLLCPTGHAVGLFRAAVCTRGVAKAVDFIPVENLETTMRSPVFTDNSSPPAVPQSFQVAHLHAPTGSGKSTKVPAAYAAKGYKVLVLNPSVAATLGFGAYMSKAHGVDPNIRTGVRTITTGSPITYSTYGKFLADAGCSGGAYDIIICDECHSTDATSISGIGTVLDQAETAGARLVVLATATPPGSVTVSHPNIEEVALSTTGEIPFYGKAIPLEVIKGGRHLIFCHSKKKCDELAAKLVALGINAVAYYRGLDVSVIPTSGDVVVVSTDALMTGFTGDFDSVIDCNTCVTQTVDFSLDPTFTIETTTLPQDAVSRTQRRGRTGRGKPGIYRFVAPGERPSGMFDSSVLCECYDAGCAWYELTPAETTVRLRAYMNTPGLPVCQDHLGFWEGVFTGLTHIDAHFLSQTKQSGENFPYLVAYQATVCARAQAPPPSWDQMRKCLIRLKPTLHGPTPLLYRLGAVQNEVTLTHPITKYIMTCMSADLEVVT
Procedure: [Landro, 1997 #Biochem 36 9340-9348]. […] The solutions were stored at −20° C. between measurements.
[Liu, 1999 Analytical Biochemistry 267 331-335].

[3] = Huh-Luc cells, incubation of three days, luciferase activity

Structure (SMILES) | EC50 [1, 3] [µM] | Ki [2] [nM] | EC50 [1] [µM]
COc1ccc2c(OC3CC4C(=O)NC5(C(=O)O)CC5C=CCCCCN(C)C(=O)C4C3)nc(-c3nc(C4CC4)cs3)cc2c1 (stereo not drawn) [Compound 29, 17-[3-(4-cyclopropylthiazol-2-yl)-6-methoxy-isoquinolin-1-yloxy]-13-methyl-2,14-dioxo-3,13-diazatricyclo[13.3.0.0^4,6]octadec-7-ene-4-carboxylic acid] | > 10 | 150 | –
COc1ccc2c(O[C@@H]3C[C@H]4C(=O)N[C@]5(C(=O)NS(=O)(=O)C6CC6)C[C@H]5/C=C\CCCCN(C)C(=O)[C@@H]4C3)nc(-c3nc(C4CC4)cs3)cc2c1 [Compound 30, N-[17-[3-(4-cyclopropylthiazol-2-yl)-6-methoxyisoquinolin-1-yloxy]-13-methyl-2,14-dioxo-3,13-diazatricyclo[13.3.0.0^4,6]octadec-7-ene-4-carbonyl](cyclopropyl)sulfonamide] | 3.03 | 1.7 | –
COc1ccc2c(O[C@@H]3C[C@H]4C(=O)N[C@]5(C(=O)O)C[C@H]5/C=C\CCCCN(C)C(=O)[C@@H]4C3)nc(-c3nc(C(C)C)cs3)cc2c1 [Compound 31, 17-[3-(4-isopropylthiazol-2-yl)-6-methoxyisoquinolin-1-yloxy]-13-methyl-2,14-dioxo-3,13-diazatricyclo[13.3.0.0^4,6]octadec-7-ene-4-carboxylic acid] | > 10 | 300 | –
COc1ccc2c(O[C@@H]3C[C@H]4C(=O)N[C@]5(C(=O)NS(=O)(=O)C6CC6)C[C@H]5/C=C\CCCCN(C)C(=O)[C@@H]4C3)nc(-c3nc(C(C)C)cs3)cc2c1 [Compound 32, N-[17-[3-(4-isopropylthiazol-2-yl)-6-methoxyisoquinolin-1-yloxy]-13-methyl-2,14-dioxo-3,13-diazatricyclo[13.3.0.0^4,6]octadec-7-ene-4-carbonyl](cyclopropyl)sulfonamide] | 3.57 | 1.4 | –
COc1ccc2c(O[C@@H]3C[C@H]4C(=O)N[C@]5(C(=O)O)C[C@H]5/C=C\CCCCN(C)C(=O)[C@@H]4C3)nc(-c3csc(NC(C)C)n3)cc2c1 [Compound 33, 17-[3-(2-isopropylaminothiazol-4-yl)-6-methoxyisoquinolin-1-yloxy]-13-methyl-2,14-dioxo-3,13-diazatricyclo[13.3.0.0^4,6]octadec-7-ene-4-carboxylic acid] | 47.5 | > 1000 | –
COc1ccc2c(O[C@@H]3C[C@H]4C(=O)N[C@]5(C(=O)NS(=O)(=O)C6CC6)C[C@H]5/C=C\CCCCN(C)C(=O)[C@@H]4C3)nc(-c3csc(NC(C)C)n3)cc2c1 [Compound 34, N-[17-[3-(2-isopropylaminothiazol-4-yl)-6-methoxyisoquinolin-1-yloxy]-13-methyl-2,14-dioxo-3,13-diazatricyclo[13.3.0.0^4,6]octadec-7-ene-4-carbonyl](cyclopropyl)sulfonamide] | 1.65 | 3.3 | –
COc1ccc2c(O[C@@H]3C[C@H]4C(=O)N[C@]5(C(=O)O)C[C@H]5/C=C\CCCCN(C)C(=O)[C@@H]4C3)nc(-n3cccn3)cc2c1 [Compound 35, 17-[3-(pyrazol-1-yl)-6-methoxyisoquinolin-1-yloxy]-13-methyl-2,14-dioxo-3,13-diazatricyclo[13.3.0.0^4,6]octadec-7-ene-4-carboxylic acid] | – | > 1000 | 20.9
COc1ccc2c(O[C@@H]3C[C@H]4C(=O)N[C@]5(C(=O)NS(=O)(=O)C6CC6)C[C@H]5/C=C\CCCCN(C)C(=O)[C@@H]4C3)nc(-n3cccn3)cc2c1 [Compound 36, N-[17-[3-(pyrazol-1-yl)-6-methoxyisoquinolin-1-yloxy]-13-methyl-2,14-dioxo-3,13-diazatricyclo[13.3.0.0^4,6]octadec-7-ene-4-carbonyl]-(cyclopropyl) sulfonamide] | 0.072 | 0.7 | –
COc1ccc2c(O[C@@H]3C[C@H]4C(=O)N[C@]5(C(=O)O)C[C@H]5/C=C\CCCCN(C)C(=O)N4C3)nc(Cl)cc2c1 [Compound 42, 17-(3-chloro-6-methoxyisoquinolin-1-yloxy)-13-methyl-2,14-dioxo-3,13,15-triaza-tricyclo[13.3.0.0^4,6]octadec-7-ene-4-carboxylic acid] | > 10 | 620 | –
COc1ccc2c(O[C@@H]3C[C@H]4C(=O)N[C@]5(C(=O)NS(=O)(=O)C6CC6)C[C@H]5/C=C\CCCCN(C)C(=O)N4C3)nc(Cl)cc2c1 [Compound 43, N-[17-(3-chloro-6-methoxyisoquinolin-1-yloxy)-13-methyl-2,14-dioxo-3,13,15-triaza-tricyclo[13.3.0.0^4,6]octadec-7-ene-4-carbonyl](cyclopropyl) sulfonamide] | 2.1 | 15 | –
COc1ccc2c(O[C@@H]3C[C@H]4C(=O)N[C@]5(C(=O)O)C[C@H]5/C=C\CCCCN(C)C(=O)N4C3)nccc2c1Br [Compound 50, 17-(5-bromo-6-methoxyisoquinolin-1-yloxy)-13-methyl-2,14-dioxo-3,13,15-triazatricyclo[13.3.0.0^4,6]octadec-7-ene-4-carboxylic acid] | – | > 1000 | –
COc1ccc2c(O[C@@H]3C[C@H]4C(=O)N[C@]5(C(=O)NS(=O)(=O)C6CC6)C[C@H]5/C=C\CCCCN(C)C(=O)N4C3)nccc2c1-c1ccc(C)nc1 [Compound 52] | > 10 | – | –
COc1ccc(-c2c(OC)ccc3c(O[C@@H]4C[C@H]5C(=O)N[C@]6(C(=O)NS(=O)(=O)C7CC7)C[C@H]6/C=C\CCCCN(C)C(=O)N5C4)nccc23)cc1 [Compound 53, N-[17-[5-(4-methoxyphenyl)-6-methoxyisoquinolin-1-yloxy]-13-methyl-2,14-dioxo-3,13,15-triaza-tricyclo[13.3.0.0^4,6]octadec-7-ene-4-carbonyl](cyclopropyl)sulfonamide] | > 10 | – | –
COc1ccc2c(O[C@@H]3C[C@H]4C(=O)N[C@]5(C(=O)NS(=O)(=O)C6CC6)C[C@H]5/C=C\CCCCN(C)C(=O)N4C3)nccc2c1-c1ccccc1 [Compound 54, N-[17-[5-phenyl-6-methoxyisoquinolin-1-yloxy]-13-methyl-2,14-dioxo-3,13,15-triaza-tricyclo[13.3.0.0^4,6]octadec-7-ene-4-carbonyl](cyclopropyl) sulfonamide] | > 10 | – | –
COc1ccc2c(O[C@@H]3C[C@H]4C(=O)N[C@]5(C(=O)NS(=O)(=O)C6CC6)C[C@H]5/C=C\CCCCN(C)C(=O)N4C3)nc(-c3ccc(OC(F)(F)F)cc3)cc2c1 [Compound 58, N-[17-(3-(4-trifluoromethoxyphenyl)-6-methoxyisoquinolin-1-yloxy)-13-methyl-2,14-dioxo-3,13,15-triaza-tricyclo[13.3.0.0^4,6]octadec-7-ene-4-carbonyl](cyclopropyl)sulfonamide] | 2.31 | – | –
COc1ccc2c(O[C@@H]3C[C@H]4C(=O)N[C@]5(C(=O)NS(=O)(=O)C6CC6)C[C@H]5/C=C\CCCCN(C)C(=O)N4C3)ncc(Br)c2c1 [Compound 66, N-[17-(4-bromo-6-methoxyisoquinolin-1-yloxy)-13-methyl-2,14-dioxo-3,13,15-triaza-tricyclo[13.3.0.0^4,6]octadec-7-ene-4-carbonyl](cyclopropyl) sulfonamide] | 0.323 | – | –
COc1ccc2c(O[C@@H]3C[C@H]4C(=O)N[C@]5(C(=O)O)C[C@H]5/C=C\CCCCN(C)C(=O)N4C3)nc(-c3csc(NC(C)C)n3)cc2c1 [Compound 71, 17-[3-(2-isopropylaminothiazol-4-yl)-6-methoxyisoquinolin-1-yloxy]-13-methyl-2,14-dioxo-3,13,15-triaza-tricyclo[13.3.0.0^4,6]octadec-7-ene-4-carboxylic acid] | > 10 | – | –
